Data taken from article PMC13070491, “Single-nucleus transcriptomics, pharmacokinetics, and pharmacodynamics of CDK4/6 and mTOR inhibition in a Phase 0/1 trial of recurrent high-grade glioma” (Neuro-Oncology, 2025).
Values joined by “and” are separate entries in the source; they are usually repeats but may differ in a detail not shown here. Equal values may be shown once.

Experiment: CNS penetration: total and unbound drug concentrations in tumor regions, CSF and plasma (LC-MS/MS, equilibrium dialysis);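 also: drug levels in patient tumor tissue from contrast-enhancing and non-enhancing regions sampled under MRI-guided neuronavigation, with plasma and CSF drawn during surgical resection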
Details: for Everolimus.CSF / Everolimus.Enhancing.tumor / Everolimus.Non-enhancing.tumor / Everolimus.Plasma.conc / Everolimus.Unbound.enhancing / Everolimus.Unbound.non-enhancing / Everolimus.Unbound.plasma: per patient
[1] = Level 0: Ribociclib 400mg QD + Everolimus 2.5mg QD, sampling 1-3 Hours
[2] = Level 0: Ribociclib 400mg QD + Everolimus 2.5mg QD, sampling 7-9 Hours
[3] = Level 0: Ribociclib 400mg QD + Everolimus 2.5mg QD, sampling 23-25 Hours
[4] = Level 1: Ribociclib 600mg QD + Everolimus 2.5mg QD, sampling 1-3 Hours
[5] = Level 1: Ribociclib 600mg QD + Everolimus 2.5mg QD, sampling 7-9 Hours
[6] = Level 2: Ribociclib 600mg QD + Everolimus 5mg QD, sampling 7-9 Hours
[7] = Level 3: Ribociclib 600mg QD + Everolimus 10mg QD, sampling 7-9 Hours
[8] = Level 4: Ribociclib 600mg QD + Everolimus 50mg once on Day 5, sampling 7-9 Hours
[9] = Level 5: Ribociclib 600mg QD + Everolimus 60mg once on Day 5, sampling 7-9 Hours

**Q.** Which “Total everolimus, CSF, MAX” value (2.5 mg QD 5 days) does the source give for `CO[C@H]1C[C@@H]2CC[C@@H](C)[C@@](O)(O2)C(=O)C(=O)N2CCCC[C@H]2C(=O)O[C@H]([C@H](C)C[C@@H]2CC[C@@H](OCCO)[C@H](OC)C2)CC(=O)[C@H](C)/C=C(\C)[C@@H](O)[C@@H](OC)C(=O)[C@H](C)C[C@H](C)/C=C/C=C/C=C/1C` [Everolimus, everolimus] here?
**A.** The value was 0.4 nM.

**Q.** And the “Total everolimus, CSF, MIN” value (2.5 mg QD 5 days)?
**A.** The value was “BLQ”.

**Q.** What about the “Total everolimus, Enhancing tumor, MIN” value (2.5 mg QD 5 days) of the same molecule?
**A.** Its value is “BLQ”.

**Q.** What about the “Total everolimus, Non-enhancing tumor, MIN” value (2.5 mg QD 5 days) of the same molecule?
**A.** Its value is “BLQ”.

**Q.** What about the “Total everolimus, CSF, MAX” value (5 mg QD 5 days) of the same molecule?
**A.** The value was “BLQ”.

**Q.** And the “Total everolimus, CSF, MED” value (5 mg QD 5 days)?
**A.** The value was “BLQ”.

**Q.** And the “Total everolimus, CSF, MIN” value (5 mg QD 5 days)?
**A.** The value was “BLQ”.

**Q.** And the “Total everolimus, CSF, MED” value (10 mg QD 5 days)?
**A.** Its value is 1.4 nM.

**Q.** And the “Total everolimus, CSF, MIN” value (10 mg QD 5 days)?
**A.** Its value is “BLQ”.

**Q.** And the “Total everolimus, Enhancing tumor, MIN” value (10 mg QD 5 days)?
**A.** Its value is “BLQ”.

**Q.** And the “Total everolimus, CSF, MIN” value (50 mg single dose)?
**A.** Its value is “BLQ”.

**Q.** What about the “Total everolimus, Non-enhancing tumor, MIN” value (50 mg single dose) of the same molecule?
**A.** The value was “BLQ”.

**Q.** And the “Total everolimus, CSF, MAX” value (60 mg single dose)?
**A.** The value was 0.57 nM.

**Q.** What about the “Total everolimus, CSF, MED” value (60 mg single dose) of the same molecule?
**A.** The value was 0.57 nM.

**Q.** What about the “Total everolimus, CSF, MIN” value (60 mg single dose) of the same molecule?
**A.** Its value is “BLQ”.

**Q.** What about the “Total everolimus, CSF, MAX” value (70 mg single dose) of the same molecule?
**A.** Its value is 11.4 nM.

**Q.** What about the “Total everolimus, CSF, MED” value (70 mg single dose) of the same molecule?
**A.** Its value is 6.35 nM.

**Q.** What about the “Total everolimus, CSF, MIN” value (70 mg single dose) of the same molecule?
**A.** Its value is “BLQ”.

**Q.** And the Everolimus.CSF [1]?
**A.** Its Everolimus.CSF is “BLQ”.

**Q.** What about the Everolimus.Enhancing.tumor [1] of the same molecule?
**A.** The Everolimus.Enhancing.tumor was 5.92E-03 and 4.32E-03.

**Q.** And the Everolimus.Non-enhancing.tumor [1]?
**A.** Its Everolimus.Non-enhancing.tumor is 2.88E-03 and BLQ.

**Q.** And the Everolimus.Plasma.conc [1]?
**A.** The Everolimus.Plasma.conc was 0.02558 and 0.00883.

**Q.** What about the Everolimus.Unbound.enhancing [1] of the same molecule?
**A.** The Everolimus.Unbound.enhancing was “BLQ”.

**Q.** And the Everolimus.Unbound.non-enhancing [1]?
**A.** Its Everolimus.Unbound.non-enhancing is “BLQ”.

**Q.** What about the Everolimus.Unbound.plasma [1] of the same molecule?
**A.** The Everolimus.Unbound.plasma was “BLQ”.

**Q.** And the Everolimus.CSF [2]?
**A.** Its Everolimus.CSF is “BLQ”.

**Q.** And the Everolimus.Enhancing.tumor [2]?
**A.** Its Everolimus.Enhancing.tumor is “BLQ and 1.69E-02”.

**Q.** What about the Everolimus.Non-enhancing.tumor [2] of the same molecule?
**A.** Its Everolimus.Non-enhancing.tumor is “BLQ and 2.24E-03”.

**Q.** And the Everolimus.Plasma.conc [2]?
**A.** The Everolimus.Plasma.conc was 0.00955 and 0.00618.

**Q.** What about the Everolimus.Unbound.enhancing [2] of the same molecule?
**A.** Its Everolimus.Unbound.enhancing is “BLQ”.

**Q.** And the Everolimus.Unbound.non-enhancing [2]?
**A.** Its Everolimus.Unbound.non-enhancing is “BLQ”.

**Q.** What about the Everolimus.Unbound.plasma [2] of the same molecule?
**A.** Its Everolimus.Unbound.plasma is “BLQ”.

**Q.** What about the Everolimus.CSF [3] of the same molecule?
**A.** The Everolimus.CSF was “BLQ”.

**Q.** And the Everolimus.Enhancing.tumor [3]?
**A.** Its Everolimus.Enhancing.tumor is “BLQ and 4.44E-03”.

**Q.** And the Everolimus.Non-enhancing.tumor [3]?
**A.** Its Everolimus.Non-enhancing.tumor is “BLQ and 5.84E-03”.

**Q.** And the Everolimus.Plasma.conc [3]?
**A.** Its Everolimus.Plasma.conc is 0.00384 and 0.00714.

**Q.** And the Everolimus.Unbound.enhancing [3]?
**A.** The Everolimus.Unbound.enhancing was “BLQ”.

**Q.** And the Everolimus.Unbound.non-enhancing [3]?
**A.** Its Everolimus.Unbound.non-enhancing is “BLQ”.

**Q.** And the Everolimus.Unbound.plasma [3]?
**A.** Its Everolimus.Unbound.plasma is “BLQ”.

**Q.** And the Everolimus.CSF [4]?
**A.** Its Everolimus.CSF is 3.90E-04.

**Q.** What about the Everolimus.Enhancing.tumor [4] of the same molecule?
**A.** The Everolimus.Enhancing.tumor was 4.40E-03.

**Q.** And the Everolimus.Non-enhancing.tumor [4]?
**A.** The Everolimus.Non-enhancing.tumor was 4.72E-03.

**Q.** And the Everolimus.Plasma.conc [4]?
**A.** Its Everolimus.Plasma.conc is 0.01738.

**Q.** What about the Everolimus.Unbound.enhancing [4] of the same molecule?
**A.** The Everolimus.Unbound.enhancing was “BLQ”.

**Q.** What about the Everolimus.Unbound.non-enhancing [4] of the same molecule?
**A.** The Everolimus.Unbound.non-enhancing was “BLQ”.

**Q.** What about the Everolimus.Unbound.plasma [4] of the same molecule?
**A.** The Everolimus.Unbound.plasma was “BLQ”.

**Q.** What about the Everolimus.CSF [5] of the same molecule?
**A.** Its Everolimus.CSF is 2.70E-04 and 3.30E-04.

**Q.** What about the Everolimus.Enhancing.tumor [5] of the same molecule?
**A.** Its Everolimus.Enhancing.tumor is 8.34E-02 and 9.20E-03.

**Q.** What about the Everolimus.Non-enhancing.tumor [5] of the same molecule?
**A.** The Everolimus.Non-enhancing.tumor was 3.53E-02 and 8.80E-03.

**Q.** What about the Everolimus.Plasma.conc [5] of the same molecule?
**A.** Its Everolimus.Plasma.conc is 0.03462 and 0.01401.

**Q.** And the Everolimus.Unbound.enhancing [5]?
**A.** Its Everolimus.Unbound.enhancing is “BLQ”.

**Q.** What about the Everolimus.Unbound.non-enhancing [5] of the same molecule?
**A.** Its Everolimus.Unbound.non-enhancing is “BLQ”.

**Q.** What about the Everolimus.Unbound.plasma [5] of the same molecule?
**A.** Its Everolimus.Unbound.plasma is “BLQ”.

**Q.** And the Everolimus.CSF [6]?
**A.** Its Everolimus.CSF is “BLQ”.

**Q.** And the Everolimus.Enhancing.tumor [6]?
**A.** The Everolimus.Enhancing.tumor was 3.98E-02 and 1.11E-02 and 1.66E-02.

**Q.** And the Everolimus.Non-enhancing.tumor [6]?
**A.** The Everolimus.Non-enhancing.tumor was 2.02E-02 and 9.20E-03 and 1.03E-02.

**Q.** What about the Everolimus.Plasma.conc [6] of the same molecule?
**A.** The Everolimus.Plasma.conc was 0.0225 and 0.0084 and 0.0281.

**Q.** What about the Everolimus.Unbound.enhancing [6] of the same molecule?
**A.** The Everolimus.Unbound.enhancing was “BLQ”.

**Q.** What about the Everolimus.Unbound.non-enhancing [6] of the same molecule?
**A.** Its Everolimus.Unbound.non-enhancing is “BLQ”.

**Q.** And the Everolimus.Unbound.plasma [6]?
**A.** The Everolimus.Unbound.plasma was “BLQ”.

**Q.** What about the Everolimus.CSF [7] of the same molecule?
**A.** Its Everolimus.CSF is “BLQ and 2.50E-03 and 3.00E-04”.

**Q.** And the Everolimus.Enhancing.tumor [7]?
**A.** The Everolimus.Enhancing.tumor was 6.13E-02 and 2.67E-02 and BLQ.

**Q.** And the Everolimus.Non-enhancing.tumor [7]?
**A.** Its Everolimus.Non-enhancing.tumor is 3.33E-02 and 4.50E-03 and 5.00E-03.

**Q.** What about the Everolimus.Plasma.conc [7] of the same molecule?
**A.** The Everolimus.Plasma.conc was 0.0311 and 0.0616 and 0.0431.

**Q.** And the Everolimus.Unbound.enhancing [7]?
**A.** Its Everolimus.Unbound.enhancing is “BLQ”.

**Q.** What about the Everolimus.Unbound.non-enhancing [7] of the same molecule?
**A.** The Everolimus.Unbound.non-enhancing was “BLQ”.

**Q.** And the Everolimus.Unbound.plasma [7]?
**A.** Its Everolimus.Unbound.plasma is “BLQ”.

**Q.** And the Everolimus.CSF [8]?
**A.** Its Everolimus.CSF is “BLQ and 3.70E-04 and 1.50E-03”.

**Q.** What about the Everolimus.Enhancing.tumor [8] of the same molecule?
**A.** The Everolimus.Enhancing.tumor was 5.16E-02 and 5.45E-02 and 7.41E-02.

**Q.** And the Everolimus.Non-enhancing.tumor [8]?
**A.** Its Everolimus.Non-enhancing.tumor is 2.51E-02 and 6.30E-03.

**Q.** What about the Everolimus.Plasma.conc [8] of the same molecule?
**A.** The Everolimus.Plasma.conc was 0.07949 and 0.06123 and 0.063.

**Q.** And the Everolimus.Unbound.enhancing [8]?
**A.** Its Everolimus.Unbound.enhancing is “BLQ”.

**Q.** And the Everolimus.Unbound.non-enhancing [8]?
**A.** The Everolimus.Unbound.non-enhancing was “BLQ”.

**Q.** And the Everolimus.Unbound.plasma [8]?
**A.** The Everolimus.Unbound.plasma was 4.59E-04 and 2.99E-04 and 3.00E-04.

**Q.** And the Everolimus.CSF [9]?
**A.** Its Everolimus.CSF is 5.70E-04 and BLQ.

**Q.** And the Everolimus.Enhancing.tumor [9]?
**A.** The Everolimus.Enhancing.tumor was 8.76E-02 and 3.04E-02 and 9.84E-03.

**Q.** And the Everolimus.Non-enhancing.tumor [9]?
**A.** Its Everolimus.Non-enhancing.tumor is 3.61E-02 and 1.38E-02 and 1.13E-02.

**Q.** What about the Everolimus.Plasma.conc [9] of the same molecule?
**A.** The Everolimus.Plasma.conc was 0.07053 and 0.09226 and 0.06809.

**Q.** What about the Everolimus.Unbound.enhancing [9] of the same molecule?
**A.** The Everolimus.Unbound.enhancing was “BLQ”.

**Q.** And the Everolimus.Unbound.non-enhancing [9]?
**A.** Its Everolimus.Unbound.non-enhancing is “BLQ”.
